Measurements as given in patent publication US20250248979A1, “NOVEL GPX4 INHIBITORS AND USES THEREOF” (THE TRUSTEES OF COLUMBIA UNIVERSITY IN THE CITY OF NEW YORK, priority 2022, published 2025).
Converted amounts (≈) assume the structure as drawn. “Also recorded” adds a separate entry of the source. Read-outs that look alike come from different tables or passages of the source.

Key:
[1] = test system: lipid peroxidation in HT-1080 cells; assay: C11-BODIPY lipid peroxidation flow cytometry assay; assay type: cell-based, human
HepG2 cells = assay: Cellular dose response assay, HepG2; assay type: cell-based, human
Description: HT-1080 (human [Homo sapiens] […] fibrosarcoma), A-673 (human [Homo sapiens] […] Ewing's sarcoma), and SK-HEP-1 (human [Homo sapiens] […] hepatic adenocarcinoma), cells were obtained from ATCC. Huh7 (human [Homo sapiens] […] hepatocellular carcinoma), HLF (human [Homo sapiens] […] hepatocellular carcinoma), HepG2 (human [Homo sapiens] […] hepatocellular carcinoma), cells were obtained from the Cancer Cell Bank at Columbia University Irving Medical Center. HT-1080, A-673, Huh-7, and HLF cells were grown in Dulbecco's Modified Eagle Medium (DMEM) supplemented with 10% heat inactivated fetal bovine serum (HI-FBS), 1% non-essential amino acids, and 1% penicillin streptomycin. HepG2 and SK-HEP-1 cells were grown in Eagle's Minimum Essential Medium (EMEM) supplemented with 10% HI-FBS, and 1% penicillin-streptomycin. All cells were cultured at 37° C. and 5% CO2.
HT-1080, HepG2, Huh7, HLF, and SK-HEP-1 cells were seeded into opaque white 384-well plates at 1500 cells per well then incubated at 37° C. with 5% CO2 overnight. The next day, compounds of interest were dissolved in DMSO and 12-point 2-fold dilution series were prepared with and without Fer-1. Cells were treated in triplicate (final DMSO concentration of 0.4% in all wells, including DMSO-only control wells) and incubated for a further 48 hours at 37° C. and 5% CO2. Cell viability was evaluated using CellTiter-Glo (Promega G7573) and luminescence was recorded on a Victor 5 plate reader. Data were analyzed in GraphPad Prism 9 and error bars represent standard deviation values for three technical replicates in a representative experiment.

GPX4 = target: T1, GPX4 (Homo sapiens, UniProt P36969); assay: GPX4 activity assay in cell lysates (NADPH-coupled); assay type: biochemical; design: endogenous in cells; host or cells: A-673 cell lysate; conditions: for IC50: mean±SD, n=3 (FIG. 84E), read-out: IC50 in the in vitro GPX4 activity assay
T1 sequence (P36969 1-170 isoform P36969-2): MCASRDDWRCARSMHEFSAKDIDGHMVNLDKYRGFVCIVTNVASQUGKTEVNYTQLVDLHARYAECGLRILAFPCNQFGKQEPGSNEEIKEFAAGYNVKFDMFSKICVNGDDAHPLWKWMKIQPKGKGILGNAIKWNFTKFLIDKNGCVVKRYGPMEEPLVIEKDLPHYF
Procedure, shortened: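 Native GPX4 in lysates of A-673 cells grown with 20 nM sodium selenite; lysate preincubated with compound 45 min at 37 °C in pH 8.0 buffer with 3 mM GSH, 0.5 mM NADPH and glutathione reductase. Reaction started with phosphatidylcholine hydroperoxide; NADPH consumption followed at 340 nm over 25 min; triplicates.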

[2] = test system: DTP cells derived from PC9; assay: Drug-tolerant persister cell model, DTP cells; conditions: for viability at 10 µM: Homo sapiens; for % Viability Persister: 48 hours
in vitro [3] = assay type: in vitro ADME, human; conditions: human, microsomes
Procedure: (§1) […]. The incubation timepoints measured were 0, 5, 10, 15, 30, and 45 minutes. All samples were prepared in duplicate and analyzed by LC-MS/MS.

in vitro [4] = assay type: in vitro ADME, mouse; conditions: mouse, microsomes
Procedure: as §1

[5] = Kinetic aqueous solubility
SU-DHL-6 = assay: Cytotoxicity in DLBCL cells, SU-DHL-6; assay type: cell-based, human; conditions: for IC50: SU-DHL-6
[6] = not given; remark: listed apart in the source
SU-DHL-7 = assay: Cytotoxicity in DLBCL cells, SU-DHL-7; assay type: cell-based, human; conditions: for IC50: SU-DHL-7
[7] = HT-1080 cells, with and without fer-1
[8] = compounds alone, Table 4, read-out: IC50 (uM) HEPG2^a
[9] = with fer-1, Table 4, read-out: IC50 (uM) HEPG2^b
[10] = 200 μM, generation 1, mean ± s.d., n = 3
[11] = Fer-1 1.0 μM, read-out: IC50 (μM) with Fer-1

SMILES | GPX4 inhibition (GPX4; 200 μM) | IC50 (GPX4) | selectivity for DTPs vs PC9 parental cells, result in words [2] | lipid peroxidation (C11-BODIPY), result in words [1, 7] | % Viability Persister ([2]; dose 10.0 μM) | Microsome Stability t1/2 (min) human (in vitro [3]) | Microsome Stability t1/2 (min) mouse (in vitro [4]) | Solubility ([5]; aqueous solubility, Table 9) | IC50 (HepG2 cells; [8]) | IC50 (HepG2 cells; [9]) | GPX4% inhibition at 200 (μM) (GPX4; [10]) | GPX4% inhibition at 20 (μM) (GPX4; generation 1) | GPX4% inhibition at 50 (μM) (GPX4; 50 μM, generation 1) | GPX4% inhibition at 100 (μM) (GPX4; generation 1) | % Viability Persister ([2]; dose 1.0 μM) | further results
Cn1nc(C(=O)NC(C)(C)COC(=O)CCl)c2ccc(Br)cc21 [QW-314] | complete inhibition | 5.8 µM | selective lethality in DTPs vs PC9 parental cells; also recorded: preferential induction of significantly more cell death in the DTP cells compared to the parental cells |  |  |  |  |  |  |  |  |  |  |  |  | lipid peroxidation (C11-BODIPY), result in words [1]: increased lipid peroxidation that is rescuable by ferrostatin-1; IC50 (HepG2 cells; Homo sapiens, HepG2, read-out: IC50 (uM) HEPG2^a): 11.3 µM; IC50 (HepG2 cells; Homo sapiens, HepG2, read-out: IC50 (uM) HEPG2^b): 222 µM; GPX4 inhibition (GPX4; 20 µM): complete inhibition in the assay even at 20 μM; inhibition at 20 µM (GPX4; read-out: GPX4% inhibition at 20 (μM)): 108 ± 5.3%; inhibition at 200 µM (GPX4; read-out: GPX4% inhibition at 200 (μM)): 93.1 ± 6%; viability at 10 µM ([2]; 48 h, read-out: % Viability Persister): 22%; viability at 10 µM ([2]; read-out: % Viability Persister + 2 μM Fer-1): 73%; half-life at 1 μM (in vitro [3]; pH 7.4): 6 min; half-life at 1 μM (in vitro [4]; pH 7.4): 5.3 min; solubility at 1 h ([5]; phosphate buffered saline, pH 7.4, aqueous buffer, kinetic from dmso stock): 61 µM (≈ 24.6 µg/mL)
COc1ccc(-c2ccc3c(C(=O)NC(C)(C)COC(=O)CCl)nn(C)c3c2)cc1Cl [QW-446] |  | 0.49 µM | show DTP selectivity relative to PC9 parental cells; also recorded: selective and similar or stronger cytotoxicity to DTP cells | induced fer-1 rescuable increases in lipid peroxidation | 26.50% | 1.6 min | 1.2 min | >1000 µM |  |  |  |  |  |  |  | Plasma Stability t1/2 (min) human: 7.5 min; ferroptosis induction / potency in SU-DHL-6 cells, result in words (SU-DHL-6): a potency that is similar to RSL3; GPX4 inhibitory activity, result in words (GPX4): greater GPX4 inhibitory activity than QW-314 at 5 μM; GPX4% inhibition at 2.5 μM (GPX4): 79.1 ± 4.4%; GPX4% inhibition at 5 μM (GPX4; 5 μM): 88.1 ± 2.7%; GPX4 inhibition rate (GPX4; concentration not given): 90%; % Viability Persister ([2]; dose 0.5 μM): 127.75%; % Viability Persister + 2 μM Fer-1 ([2]; dose 0.5 μM): 110.75%; % Viability Persister + 2 μM Fer-1 ([2]; dose 10.0 μM): 107.50%; % Viability Persister ([2]; dose 20.0 μM): 4.25%; % Viability Persister + 2 μM Fer-1 ([2]; dose 20.0 μM): 27.00%; Plasma Stability t1/2 (min) mouse [6]: 24.0 min; aqueous solubility [5]: up to 1000 μM; Solubility ([5]; 1% DMSO, Phosphate Buffered Saline pH 7.4, 1 hour, ambient, UV/Vis absorbance): 22 µM (≈ 10.2 µg/mL)
COc1cccc2[nH]c(C(=O)n3ccnc3)cc12 [LOC1886, reference compound] |  |  |  | induces lipid peroxidation in cells |  |  |  |  |  |  |  |  |  |  |  | IC50 (HepG2 cells; Homo sapiens, HepG2, compounds alone, read-out: IC50 (μM) HEPG2^a): 88.6 µM; IC50 (HepG2 cells; Homo sapiens, HepG2, compounds and fer-1 1.0 μM, read-out: IC50 (μM) HEPG2^b): 29.1 µM; inhibition at 200 µM (GPX4; 200 μM, mean ± s.d., n = 3, read-out: GPX4% inhibition at 200): 31.9 ± 6%
CC(C)(COC(=O)CCl)NC(=O)c1cc2ccccc2[nH]1 [QW-147] | complete loss in potency of inhibitory activity |  |  |  |  |  |  |  | 69 µM | 104 µM | −3.3 ± 45.3% |  |  |  |  | 
COc1ccc2cc(C(=O)NC(C)(C)COC(=O)CCl)[nH]c2c1 [QW-152] | complete inhibition |  |  |  |  | 1.5 min | 0.9 min | 88 µM (≈ 29.8 µg/mL) | 81.4 µM | 291 µM | 150.4 ± 20.3% | 27.9 ± 5.5% | 56.0 ± 6.2% | 70.5 ± 9.2% |  | GPX4 inhibition (GPX4; 50 μM): approximately 60%
COC(=O)c1ccc([C@@H]2c3[nH]c4ccccc4c3C[C@@H](C(=O)OC)N2C(=O)CCl)cc1 [RSL3, reference compound] |  | 7.6 µM |  |  |  | 14 min | 2.4 min | 26 µM (≈ 11.5 µg/mL) | 5.4 µM | 32.2 µM |  |  |  |  | 6.00% | Plasma Stability t1/2 (min) human: >1000 min; Selectivity^a (fold) (SU-DHL-6): 71 fold; IC50 (SU-DHL-6; 24 h, read-out: IC50): 0.019 µM; IC50 (SU-DHL-6; [11]): 1.35 µM; Selectivity^a (fold) (SU-DHL-7): 6 fold; IC50 (SU-DHL-7; 24 h, read-out: IC50): 0.17 µM; IC50 (SU-DHL-7; [11]): 1 µM; IC50 (HepG2 cells; compounds alone, Table 7, read-out: IC50 (uM) HEPG2^a): 5.4 µM; IC50 (HepG2 cells; compounds alone, read-out: IC50 (μM) HEPG2^a): 5.4 µM; IC50 (HepG2 cells; compounds and fer-1 1.0 μM, read-out: IC50 (μM) HEPG2^b): 32.2 µM; IC50 (HepG2 cells; with fer-1, Table 7, read-out: IC50 (uM) HEPG2^b): 32.2 µM; GPX4% inhibition at 200 (μM) (GPX4; 200 μM, mean ± s.d., n = 3): 112.5 ± 6.5%; Plasma Stability t1/2 (min) mouse [6]: 5.2 min
CC(C)(COC(=O)CCl)NC(=O)c1nn(Cc2cc(Cl)cc(Cl)c2)c2cc(-c3ccc(N4CCOCC4)c(Cl)c3)ccc12 [QW-852] |  |  | greater potency and selectivity to DTP cells | increase in lipid-ROS which can be attenuated by ferrostatin-1 | 3.25% |  |  |  |  |  |  |  |  |  | 48.00% | Selectivity^a (fold) (SU-DHL-6): 269 fold; IC50 (SU-DHL-6; 24 h, read-out: IC50): 0.019 µM; IC50 (SU-DHL-6; [11]): 5110 µM; Selectivity^a (fold) (SU-DHL-7): >1000 fold; IC50 (SU-DHL-7; 24 h, read-out: IC50): 0.031 µM; IC50 (SU-DHL-7; [11]): > 1000 µM; GPX4 inhibitory activity, result in words (GPX4): greater GPX4 inhibitory activity than QW-446 at 2.5 μM concentration; GPX4% inhibition at 2.5 μM (GPX4; 4th generation): 88.2 ± 13.3%; % Viability Persister + 2 μM Fer-1 ([2]; dose 1.0 μM): 93.75%
CC(C)(COC(=O)CCl)NC(=O)c1cc2cc([N+](=O)[O-])ccc2[nH]1 [QW-148] |  |  |  |  |  |  |  |  | > 400 µM | > 400 µM | 87.3 ± 34.6% | 66.7 ± 1.4% | 79.2 ± 5.8% | 62.7 ± 10.9% |  | 
CC(C)(COC(=O)CCl)NC(=O)c1cc2ccc(Br)cc2[nH]1 [QW-156] | complete inhibition |  | no selectivity for DTP cells over PC9 cells at most concentrations tested | induced fer-1 rescuable increases in lipid peroxidation | 73.25% | >1000 min | >1000 min | 23 µM (≈ 8.92 µg/mL) | 25.4 µM | 51.5 µM | 170.3 ± 33.5% | 61.2 ± 0.5% | 98.6 ± 4.1% | 95.5 ± 6.2% | 122.00% | GPX4 inhibition (GPX4; 50 μM): complete GPX4 inhibition; % Viability Persister ([2]; dose 25.0 μM): 24.50%; % Viability Persister ([2]; dose 50.0 μM): 2.50%
